Measurements: patent US12329799B2, “Peptidyl inhibitors of calcineurin-NFAT interaction” (Ohio State Innovation Foundation, priority 2018, dated 2025)
Positions of bridges follow the written chain, without caps; N, C: chain ends. Non-standard residues stand in square brackets, D forms with d. Residues, ends and D or L forms follow the SMILES beside them. Chains are numbered I, II in the order given. *: point of attachment. Benzoyl(2,3-Cl2) = O=C(c1cccc(Cl)c1Cl)*; 2Nal = N[C@@H](Cc1ccc2ccccc2c1)C(=O)O; Tle = CC(C)(C)[C@H](N)C(=O)O; βAla = NCCC(=O)O

Key:
H441 (lung cancer) cells = assay: MTT assay, H441; type: cell-based; settings: 72 h
Protocol: (§1) MTT Proliferation Assay. HeLa, Jurkat-Lucia, or H441 cells were seeded into a 96-well microplate (5000 cells per well) in full growth media and incubated at 37° C. overnight. A serial dilution of each compound was prepared in DPBS and then added to each well. The treated cells were incubated at 37° C. with 5% CO2 for 72 h. Following compound treatment, 10 μL of MTT stock solution was added to each well. After an additional 4 h at 37° C., 100 μL of SDS-HCl solubilizing solution was added to each well and the plate was returned to the incubator overnight at 37° C. A Tecan Infinite M1000 Pro microplate reader was used the following morning to measure the absorbance of the formazan product at 565 nm.

HeLa cells [1] = assay: Cytosolic delivery assay (NF-labeled peptides, flow cytometry); type: cell-based; settings: 5 μM, 2 h, relative to CPP9 = 100%
Protocol: The NF fluorescence intensity of the treated cells therefore reflects the amount of the peptide that has reached the cytosol and nucleus of the cells. […] Live-cell confocal microscopic analysis confirmed that CNI93 reached the interior of HeLa cells.
Cytosolic Delivery Assay. HeLa cells maintained in DMEM supplemented with 10% FBS and 1% penicillin/streptomycin were seeded into 12-well plates (1.5×10^5 cells per well) and incubated overnight at 37° C., 5% CO2. The following day, the cells were washed with DPBS and incubated with 5 μM NF-labeled peptides dissolved in DMEM containing 10% FBS, 1% penicllin/streptomycin for 2 h at 37° C. in the presence of 5% CO2. After that, the cells were washed with DPBS and harvested from the plate by treatment with 0.25% trypsin for 5 min. Cells were centrifuged at 300×RCF, washed twice with cold DPBS, and resuspended in cold DPBS for flow cytometry analysis on a BD LSR II flow cytometer followed by data analysis and gating using Flowjo. Calculation of cytosolic uptake efficiencies was carried out as previously described by Qian, Z., et al., Discovery and Mechanism of Highly Efficient Cyclic Cell-Penetrating Peptides. Biochemistry 2016, 55, 2601-2612.

HeLa cells [2] = assay: MTT assay, HeLa; type: cell-based; settings: 72 h
Protocol: as §1
Potential cytotoxicity of CNI101 (SEQ ID NO: 206) and CNI103 (SEQ ID NO: 208) was tested on HeLa cells by the MTT proliferation assay. HeLa cells were seeded into a 96-well microplate (5000 cells per well) in full growth media and incubated at 37° C. overnight. A serial dilution of each inhibitor was prepared in DPBS and then added to each well. The treated cells were incubated at 37° C. with 5% CO2 for 72 h. Following compound treatment, 10 μL of MTT stock solution was added to each well. After an additional 4 h at 37° C., 100 μL of SDS-HCl solubilizing solution was added to each well and the plate was returned to the incubator overnight at 37° C. A Tecan Infinite M1000 Pro microplate reader was used the following morning to measure the absorbance of the formazan product at 565 nm.

[3] = test system: LPS-induced TNFα and IL-6 secretion, mouse total lung macrophages; assay: Inhibition of TNFα and IL-6 secretion by macrophage; type: cell-based; settings: 100 nM, 1 μM, or 10 μM for 2 h, then LPS 6 h
Protocol: Mouse total lung macrophages were obtained from 5 mice and pooled. Macrophages were pretreated with 100 nM, 1 μM, or 10 μM inhibitor for 2 h and stimulated with LPS ([…]) or PBS for 6 h. Cell supernatants were collected and analyzed for TNFα levels (FIG. 20A) or IL-6 levels (FIG. 20B) by R&D Systems TNFα ELISA kit and R&D Systems IL-6 ELISA kit.

Calcineurin (GST-CN) = molecular target: T1, Calcineurin (GST-CN) (Homo sapiens, UniProt Q08209); assay: Direct binding of FITC-labeled peptides to CN by fluorescence anisotropy/polarization
T1 construct: made in house; host or cells: E. coli BL21
Protocol: To facilitate concentration determination and binding analysis by fluorescence anisotropy (FA), a dipeptide Tyr-Lys was added to the C-terminus of ZIZIT (SEQ ID NO:1) and the lysine side chain was labeled with fluorescein isothiocyanate (FITC). The resulting peptide,
Fluorescence Polarization. Fluorescence polarization (FP) experiments were carried out to measure binding affinity in both direct and competitive binding experiments using GST-CN and peptides prepared as mentioned previously. For direct binding, 50 nM FITC-labeled peptide was prepared in PBS, pH 7.4 containing 5 mM DTT and 0.01% Triton-X100 and then added to GST-CN diluted in PBS containing 0.01% Triton-X100. Solutions were incubated for 1 h at RT with gentle mixing and then pipetted into black 384-well microplates. Fluorescence polarization was measured on a TECAN Infinite M1000 plate reader and titration curves were fitted using both KaelidaGraph v 3.6 and GraphPad PRISM to the equation:
[formula] • where FP is the measured fluorescence polarization, Amin is the minimum FP value, Amax is the maximum FP signal, Qb is the quantum yield of the bound fluorophore, Qf is the quantum yield of the free fluorophore, L is the ligand concentration, KD is the dissociation constant and x is the protein concentration.

[4] = Maximum tolerated dose (body weight over 10 days); type: in vivo
[5] = test system: NFATc3 nuclear translocation; assay: LPS-induced NFATc3 nuclear translocation in macrophages (immunofluorescence); type: cell-based, mouse; settings: 1 μM peptide pretreatment, LPS stimulation
Protocol: Endotoxin lipopolysaccharide (LPS) was previously shown to induce NFATc3 translocation from the cytoplasm into the nucleus and upregulation of NFATc3 target genes in macrophages.
Immunofluorescence. Mouse BMDM were pretreated with 1 μM of control CPP9 (SEQ ID NO: 76)-VAVAA (SEQ ID NO: 224)-Biotin or CNI93-Biotin peptides for 5 min and stimulated with PBS or LPS (100 ng/mL) for 1 h. Treated cells were washed, fixed in 4% paraformaldehyde and incubated sequentially with anti-rabbit NFATc3, Anti-rabbit Alexa Fluor™ 488 Conjugate and Alexa Fluor™ 594 Streptavidin. Cells were washed three times in 1×PBS after incubation with each antibody.

[6] = test system: LPS-induced TNFα production in lung macrophages; assay: LPS-induced TNFα secretion by lung macrophages (ELISA); type: cell-based, mouse
Description: Cell supernatants were collected and analyzed for TNFα levels by R&D systems TNFα ELISA kit.

T1 sequence (Q08209 2-347 limits assumed): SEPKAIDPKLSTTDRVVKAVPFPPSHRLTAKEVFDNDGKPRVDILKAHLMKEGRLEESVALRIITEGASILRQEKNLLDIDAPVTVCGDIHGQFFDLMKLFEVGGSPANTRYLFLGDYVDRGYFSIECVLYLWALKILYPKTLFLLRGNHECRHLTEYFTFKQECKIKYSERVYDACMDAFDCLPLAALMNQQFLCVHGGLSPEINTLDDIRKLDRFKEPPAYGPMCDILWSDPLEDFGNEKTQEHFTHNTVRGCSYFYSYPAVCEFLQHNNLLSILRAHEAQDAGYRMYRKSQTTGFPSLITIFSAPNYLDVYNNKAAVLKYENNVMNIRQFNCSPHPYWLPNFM

With `CC[C@H](C)[C@H](NC(=O)[C@@H](NC(=O)c1cccc(Cl)c1Cl)C(C)(C)C)C(=O)N[C@H](C(=O)N[C@H](C(=O)N[C@H](C(=O)N[C@@H](CCC(N)=O)C(=O)N[C@@H](Cc1c[nH]cn1)C(=O)N[C@H](CC(C)C)C(=O)N[C@@H](CO)C(=O)NCCC(=O)N[C@@H](CCCCNC(=O)CC[C@@H]1NC(=O)[C@@H](CCCNC(=N)N)NC(=O)[C@H](CCCNC(=N)N)NC(=O)[C@@H](CCCNC(=N)N)NC(=O)[C@H](CCCNC(=N)N)NC(=O)[C@H](Cc2ccc3ccccc3c2)NC(=O)[C@@H](Cc2ccccc2)NC1=O)C(N)=O)[C@@H](C)O)[C@@H](C)CC)C(C)(C)C` [CNI93] (I: {Benzoyl(2,3-Cl2)}-[Tle]I[Tle]ITQH[dL]S[βAla]K-NH2 / II: cyclo([2Nal]R[dR]R[dR]E[dF]); amide I:11-II:6 (inferred); ring closure inferred) the cytotoxicity (H441 (lung cancer) cells; H441, 25 μM) was “No significant cytotoxicity”, the cell viability (H441 (lung cancer) cells; H441, 50 μM) was “Reduction in cell viability” and the “relative cytosolic delivery efficiency” value (HeLa cells [1]) was 109%. The cytotoxicity (HeLa cells [2]; 25 μM) was “No significant cytotoxicity”, the cell viability (HeLa cells [2]; 50 μM) was “Reduction in cell viability” and the “secreted amounts of TNFα and IL6” value [3] was “dose-dependently reduced”. The “lower CN-binding affinity relative to peptide 14” value (Calcineurin (GST-CN)) was 8 fold, the body weight ([4]; intranasal 10 mg/kg) was “steady increase in body weight similar to healthy controls” and the “survival and signs of distress” value ([4]; intranasal 10 mg/kg) was “survived and showed no visible sign of distress”. The body weight ([4]; intranasal 50 mg/kg) was “steady increase in body weight similar to healthy controls”, the “survival and signs of distress” value ([4]; intranasal 50 mg/kg) was “survived and showed no visible sign of distress” and the “LPS-induced nuclear translocation of NFATc3” value [5] was “completely blocked”. The “decrease of LPS-induced TNFα production” value ([6]; dose-dependent, 100 nM-10 μM, LPS 100 ng/mL, 16 h) was 24-59% and the “potency as immunosuppressant relative to CsA” value ([6]; ex vivo assay) was roughly 10 fold.
